# Data reported in patent US20130289112A1, “SALTS OF KUKOAMINE B, PREPARATION METHOD AND USE THEREOF” (priority 2010, published 2013).
# Where a name gives a salt, the structure may show the parent alone.
# Experiments:
# [1] = Affinity assay of salts of kukoamine B with lipid A (IAsys plus Affinity Sensor); assay type: binding; conditions: 1 mg in 1 ml PBS (0.01 M, pH 7.4), 5 μl added to cuvette with 45 μl PBS, immobilized lipid A, 3 min; curves in FIG. 1
# Protocol: 15.1 Methods: The affinity assay is carried out according to the methods disclosed in the Chinese patent titled “Use of an active ingredient or active substance selected and isolated from traditional Chinese herbs in the preparation of drugs for treating sepsis” (Chinese patent Number ZL 200510070677.3) granted to the applicant, which mainly comprises the following steps:
# (1) Lipid A is immobilized on the reacting surfaces of non-derivative cuvettes according to the instructions of immobilization of lipid in the manufacturer's instructions of IAsys plus Affinity Sensor. Wherein, the end of hydrophobic side chain of lipid A was immobilized on cuvette, and the hydrophilic end is floating outside, which act as target site of binding reaction;
# (§1) (2) 1 mg of each of the salts, including kukoamine B hydrochlorate, kukoamine B hydrobromide, kukoamine B sulfate, kukoamine B phosphate, kukoamine B acetate, kukoamine B maleate, kukoamine B succinate, kukoamine B malate, kukoamine B lactate, kukoamine B tartrate, kukoamine B methanesulfonate, kukoamine B p-toluenesulfonate, kukoamine B glutamate, and kukoamine B aspartate, is fully dissolved by 1 ml of PBS solution (0.01 M, pH 7.4), respectively;
# (3) 5 μl of each of the solution obtained in step (2) is added into the affinity sensor's cuvettes (containing 45 μl of PBS solution) previously immobilized with lipid A to carry out the reaction, respectively;
# (4) The binding reaction is carried out for 3 min, and the binding curves are recorded;
# (5) Each of the cuvettes is washed with 50 μl of PBS solution for 3 times, and dissociation curves are recorded;
# (6) Each of the cuvettes is washed with 0.1 M HCl solution for 3 times, and the regeneration curves are recorded.
# [2] = Neutralizing test on LPS in vitro (kinetic turbidimetric limulus test); assay type: biochemical; conditions: 20 μM solution mixed with equal volume of LPS 0.25 ng/ml, 37° C. 30 min, TAL reagent; FIG. 2
# Protocol: 16.1 Methods: The neutralizing test is carried out according to the manufacturer's instructions of 32 Well Kinetic Tube Reader (ATi321-06) endotoxin detector, which mainly comprises the following steps:
# as §1, with “(1) Each” for “(2) 1 mg of each”, “prepared into 20 μM” for “fully dissolved by 1 ml of PBS”, “with nonpyrogenic water,” for “(0.01 M, pH 7.4),”
# (2) 100 μl of each of the solution obtained in step (1) is separately mixed with equal volume of LPS solution (0.25 ng/ml). At the same time, the control group is established, which is a mixed solution containing 100 μl of nonpyrogenic water and equal volume of LPS solution (0.25 ng/ml). The LPS group and control group are incubated at 37° C. for 30 min. Then, 100 μl of the reaction solutions of LPS group and control group are separately added into a detector tube containing 100 μl of TAL reagents, and LPS value of each group are detected by kinetic turbidimetric limulus test according to the manufacturer's instructions of 32 Well Kinetic Tube Reader (ATi321-06) Bacterial Endotoxin Detection system. The test of each concentration is repeated three times;
# [3] = system: RAW264.7 cells; experiment: Inhibition of release of inflammatory mediators (TNF-α) in RAW264.7 cells induced by LPS; assay type: cell-based; conditions: LPS 100 ng/ml, salt 0, 50, 100, 200 μM, 4 h, ELISA, FIG. 3
# Protocol: (§2) 17.1 Methods: RAW264.7 cells are diluted to 1×10^6/ml in DMEM culture medium, added into a 96-well cell culture plate (200 μl per well), and incubated at 37° C. in a 5% CO2 humidified incubator for 4 h, and then the supernatant is replaced with 200 μl of serum-free DMEM culture medium after cells attachment. Next, each well is added with LPS (final concentration of 100 ng/ml), and then added with one of the salts of kukoamine B (including kukoamine B malate, kukoamine B succinate, kukoamine B lactate, kukoamine B tartrate, kukoamine B methanesulfonate, kukoamine B p-toluenesulfonate, kukoamine B glutamate, kukoamine B acetate, kukoamine B hydrochlorate, and kukoamine B sulfate) to obtain the final concentration of 0, 50, 100, and 200 μM, respectively. The control group contains no LPS. Then, the incubation goes on for 4 h. The supernatant is collected to measure the concentration of TNF-α according to the manufacturer's instructions of ELISA kit.
# [4] = system: RAW264.7 cells; experiment: Inhibition of release of inflammatory mediators (TNF-α) in RAW264.7 cells induced by CpG DNA; assay type: cell-based; conditions: CpG DNA 10 μg/ml, salt 0, 50, 100, 200 μM, 4 h, ELISA, FIG. 4
# Protocol: as §2, with “18.1” for “17.1”, “CpG DNA” for “LPS”, “10 μg/ml ),” for “100 ng/ml),”, “CpG DNA.” for “LPS.”
# [5] = system: sepsis model of mice; experiment: Protective effect in the sepsis model of mice (cecal ligation and puncture, CLP); assay type: in vivo, Balb/c mice; conditions: 7 days; for survival rate of mice: combination with antibiotic (ampicillin sodium-sulbactam sodium 80 mg/kg), salt 2.5 mg/kg through tail vein at 0-68 hours after surgery; for protective effect to the sepsis model of mice: salt 2.5 mg/kg tail vein combined with antibiotic, FIG. 5
# Description: 19.1 Methods: 120 Balb/c mice, each of 19-21 g, half of which being male and half female, are divided into six groups randomly, including control group, antibiotic group, antibiotic and kukoamine B hydrochlorate group, antibiotic and kukoamine B methanesulfonate group, antibiotic and kukoamine B p-toluenesulfonate group, and antibiotic and kukoamine B benzene sulfonate group. Each group contains 20 mice. The mice are narcotized with anesthesia machine; the vapor concentration of isoflurane is 5%; the pressure of the mixed gas is 1 MPa; anesthesia time is about 5 min. The mice model are setup by cecal ligation and puncture (CLP) comprising the following steps: the mice are maintained in supine position, and the abdomen skin is disinfected with iodophor; the skin, muscular layer and peritoneum below the midpoint of linea alba 0.3 cm are cut open with ophthalmic scissors (the length of the incisions is 0.8 CM); the muscular layer is picked up with ophthalmic forceps, and the enterocoelia is explored with ophthalmic forceps; the cecum is pulled out and ligated with No. 4 suture at 0.5 CM from the end of cecum; then, the cecum is vertically punctured with No. 12 needle, and squeezed to extrude contents; finally, the cecum is put back and the incision is stitched. Thereafter, the mice in control group are injected with 0.2 ml of sterile saline through tail vein; the mice in antibiotic group are injected with antibiotic (ampicillin sodium-sulbactam sodium) at a dosage of 80 mg/kg body weight through tail vein at 4 hours after surgery; the mice in other four groups are separately injected with kukoamine B hydrochlorate, kukoamine B methanesulfonate, kukoamine B p-toluenesulfonate and kukoamine B benzene sulfonate at a dosage of 2.5 mg/kg body weight at a time through tail vein at 0, 4, 12, 20, 28, 36, 44, 52, 60 and 68 hours after surgery.
Molecule,binding reaction with lipid A [1],neutralization of LPS in vitro [2],inhibition of the release of TNF-α induced by LPS [3],inhibition of the release of TNF-α induced by CpG DNA [4],survival rate of mice [5] [%],comparison of protective effect among the salts ([5]; four salts compared),protective effect to the sepsis model of mice [5]
CS(=O)(=O)O.NCCCN(CCCCNCCCNC(=O)CCc1ccc(O)c(O)c1)C(=O)CCc1ccc(O)c(O)c1 [kukoamine B methanesulfonate],can bind with lipid A,can neutralize LPS in vitro,can inhibit the release of TNF-α,can inhibit the release of TNF-α,50,has the best effect,have protective effects to the sepsis model of mice
CC(O)C(=O)O.NCCCN(CCCCNCCCNC(=O)CCc1ccc(O)c(O)c1)C(=O)CCc1ccc(O)c(O)c1 [kukoamine B lactate],can bind with lipid A,can neutralize LPS in vitro,can inhibit the release of TNF-α,can inhibit the release of TNF-α,,,
NCCCN(CCCCNCCCNC(=O)CCc1ccc(O)c(O)c1)C(=O)CCc1ccc(O)c(O)c1 [kukoamine B hydrobromide],can bind with lipid A,can neutralize LPS in vitro,,,,,
Cc1ccc(S(=O)(=O)O)cc1.NCCCN(CCCCNCCCNC(=O)CCc1ccc(O)c(O)c1)C(=O)CCc1ccc(O)c(O)c1 [kukoamine B p-toluenesulfonate],can bind with lipid A,can neutralize LPS in vitro,can inhibit the release of TNF-α,can inhibit the release of TNF-α,20,,have protective effects to the sepsis model of mice
NCCCN(CCCCNCCCNC(=O)CCc1ccc(O)c(O)c1)C(=O)CCc1ccc(O)c(O)c1 [kukoamine B hydrochlorate],,,,,20,,have protective effects to the sepsis model of mice
NCCCN(CCCCNCCCNC(=O)CCc1ccc(O)c(O)c1)C(=O)CCc1ccc(O)c(O)c1 [kukoamine B malate],,,can inhibit the release of TNF-α,can inhibit the release of TNF-α,,,
kukoamine B benzene sulfonate,,,,,30,,have protective effects to the sepsis model of mice
CC(=O)O.NCCCN(CCCCNCCCNC(=O)CCc1ccc(O)c(O)c1)C(=O)CCc1ccc(O)c(O)c1 [kukoamine B acetate],can bind with lipid A,can neutralize LPS in vitro,can inhibit the release of TNF-α,can inhibit the release of TNF-α,,,
